In the supplement of paper PMC10307832:

Columns and labels:
Experiment in all cases: relative viability (nuclei count vs DMSO), 5 days (fraction); higher = more cells survive
RU-SKI 43 + Bortezomib = compound: CC[C@@H](C)CNCC(=O)N1CCC2=C([C@@H]1COC3=CC=CC(=C3)C)C=CS2 [RU-SKI 43] + CC(C)C[C@H](NC(=O)[C@H](Cc1ccccc1)NC(=O)c1cnccn1)B(O)O [Bortezomib] (partner 0.002 µM)
How it was run: (§1)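 Values are medians from duplicate plates. Each reflects relative viability, defined as the nuclei count of treated wells over that of vehicle wells. Lung cancer cell lines in 1536-well plates were pin-tool dosed one day after seeding with one drug alone or with a fixed anchor-drug dose plus five library-drug doses (not always all listed) in √10 steps, then fixed, stained and imaged at 4× after 5 days.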

Irinotecan + Pemetrexed = compound: CCc1c2c(nc3ccc(OC(=O)N4CCC(N5CCCCC5)CC4)cc13)-c1cc3c(c(=O)n1C2)COC(=O)[C@]3(O)CC [Irinotecan] + Nc1nc2[nH]cc(CCc3ccc(C(=O)N[C@@H](CCC(=O)O)C(=O)O)cc3)c2c(=O)[nH]1 [Pemetrexed] (partner 0.2 µM)
How it was run: as §1

Irinotecan + Lapatinib = compound: CCc1c2c(nc3ccc(OC(=O)N4CCC(N5CCCCC5)CC4)cc13)-c1cc3c(c(=O)n1C2)COC(=O)[C@]3(O)CC [Irinotecan] + CS(=O)(=O)CCNCc1ccc(-c2ccc3ncnc(Nc4ccc(OCc5cccc(F)c5)c(Cl)c4)c3c2)o1 [Lapatinib] (partner 2 µM)
How it was run: as §1

MK-8033 + Navitoclax = compound: Cn1cc(-c2cnc3ccc4ccc(CS(=O)(=O)NCc5ccccn5)cc4c(=O)c3c2)cn1 [MK-8033] + CC1(C)CCC(c2ccc(Cl)cc2)=C(CN2CCN(c3ccc(C(=O)NS(=O)(=O)c4ccc(N[C@H](CCN5CCOCC5)CSc5ccccc5)c(S(=O)(=O)C(F)(F)F)c4)cc3)CC2)C1 [Navitoclax] (partner 0.5 µM)
How it was run: as §1

UMC-11
relative viability (RU-SKI 43 + Bortezomib; first compound 0.1 µM): 0.731 | relative viability (RU-SKI 43 + Bortezomib; first compound 0.3162 µM): 1.1 | relative viability (RU-SKI 43 + Bortezomib; first compound 1 µM): 1.05 | relative viability (RU-SKI 43 + Bortezomib; first compound 3.162 µM): 0.666 | relative viability (RU-SKI 43 + Bortezomib; first compound 10 µM): 0.927 | relative viability (Irinotecan + Pemetrexed; first compound 0.6325 µM): 0.46 | relative viability (Irinotecan + Pemetrexed; first compound 2 µM): 0.436 | relative viability (Irinotecan + Pemetrexed; first compound 6.325 µM): 0.288 | relative viability (Irinotecan + Pemetrexed; first compound 20 µM): 0.228 | relative viability (Irinotecan + Lapatinib; first compound 0.6325 µM): 0.354 | relative viability (Irinotecan + Lapatinib; first compound 2 µM): 0.452 | relative viability (Irinotecan + Lapatinib; first compound 6.325 µM): 0.259 | relative viability (Irinotecan + Lapatinib; first compound 20 µM): 0.2 | relative viability (MK-8033 + Navitoclax; first compound 0.02 µM): 0.306 | relative viability (MK-8033 + Navitoclax; first compound 0.06325 µM): 0.265 | relative viability (MK-8033 + Navitoclax; first compound 0.2 µM): 0.287 | relative viability (MK-8033 + Navitoclax; first compound 0.6325 µM): 0.28 | relative viability (MK-8033 + Navitoclax; first compound 2 µM): 0.332
